Source: US6518308B2, “Compositions for adhesion prevention” (priority 2000, dated 2003)

Tests used:
[1] = animal adhesion study, monitoring of serum alanine and lactate; format: in vivo, rat or rabbit; settings: in the presence of dichloroacetic acid, intravenous injection or slow release
Procedure: An animal adhesion study to evaluate the effectiveness of the pharmaceutical compositions described previously is conducted using a standardized animal model, such as a model of cecal abrasion in the rat or an oravian bisection in the rabbit.
The animals undergo lesioning by a surgeon unaware of group assignment, with necropsy performed one to two weeks later as is standard for that particular animal model.
The animals are randomized in a placebo control group and a group using dichloroacetic acid. The treatment begins preoperatively, and continues for five days after surgery. Dichloroacetic acid is administered by intravenous injection, or by slow release from a delivery agent, and is left in the peritoneal cavity following surgery. The maintenance of adequate amounts of dichloroacetic acid can be monitored by the measurement of serum alanine and lactate, which is reduced in the presence of dichloroacetic acid. Necropsy is performed on the animals, and adhesions are scored. Studies are completed on a total of 30 animals in each group in at least three settings.

[2] = system: human mesothelial cells or human fibroblasts; assay: cell cultures under hypoxic conditions, production of inflammatory cytokines and growth factors; format: cell-based; settings: human mesothelial cells or human fibroblasts cultured under hypoxic conditions, presence vs absence of dichloroacetic acid
Procedure: Similarly, cell cultures using human mesothelial cells or human fibroblasts are cultured under hypoxic conditions in the presence and absence of dichloroacetic acid. The production of inflammatory cytokines and growth factors is measured, and found to be reduced in the presence of dichloroacetic acid. These growth factors, such as IL-1 and TGF-β, are believed to be associated with adhesion development.

Question: Which results are given for O=C(O)C(Cl)Cl [dichloroacetic acid]?
Answer: serum alanine and lactate [1]: reduced; production of inflammatory cytokines and growth factors (such as IL-1 and TGF-β) [2]: reduced
